Results from patent US5470854A, “2-phenylbenzo[B]furans, process for their manufacture and pharmaceutical preparations containing them” (Schering Aktiengesellschaft, priority 1991, dated 1995).

Columns and labels:
uterus of infantile mice [1] = assay: Anti-uterotrophic test (in-vivo test on infantile mice); settings: simultaneous 0.4 μg oestron/animal/day; for anti-uterotrophic test, effect: uterus dry weight (mg)/body weight (g) × 100
Procedure: (§1) The effectiveness of these compounds was found in an in-vivo test on infantile mice. This test is extensively described in Cancer Treatment Reviews 1984, 11, 147, and J. Med. Chem., 1984, 27, 1439.
(§2) ^a dosage/animal, administered s.c. on three consecutive days in oliv
(§3) ^b uterus dry weight (mg)/body weight (g) × 100, determined 24
(§4) hours after the final injection.
^c simultaneous administration of 0.4 μg oestron/animal/day.

[2] = test system: human MCF-7 mamma carcinoma cells; assay: Effect on cell growth of MCF-7 cells; format: cell-based; settings: for activity at 10 µM / activity at 1 µM / activity at 0.1 µM / activity at 5 µM: Homo sapiens, MCF7, mean of 16 individual results, read-out: T/C (corrected); for activity at 10 µM: 1 × 10^-5 M; for activity at 1 µM: 1 × 10^-6 M; for activity at 0.1 µM: 1 × 10^-7 M; for activity at 5 µM: 5 × 10^-6 M
Procedure: Data given as corrected T/C values (%).
^a Inhibiting effect on MCF7 cells: quotient of optical densities fro
standard deviation through error reckoning according to GAUSS.
^b Substance concentration (mol/1) in incubation medium.
^c Significant p < 0.01 in relation to control group (C).

oestrogen receptor = target: T1, oestrogen receptor (Bos taurus, UniProt P49884); assay: Relative bonding affinity to the oestrogen receptor (competition with 3H-17β-Estradiol); format: binding, calf; settings: for RBA* (relative bonding affinity to the oestrogen receptor): calves' uteri, in relation to 17β-estradiol = 100
T1 construct: oestrogen receptor of a calf's uterus; from tissue; host or cells: calf uterus
T1 sequence (P49884 1-596): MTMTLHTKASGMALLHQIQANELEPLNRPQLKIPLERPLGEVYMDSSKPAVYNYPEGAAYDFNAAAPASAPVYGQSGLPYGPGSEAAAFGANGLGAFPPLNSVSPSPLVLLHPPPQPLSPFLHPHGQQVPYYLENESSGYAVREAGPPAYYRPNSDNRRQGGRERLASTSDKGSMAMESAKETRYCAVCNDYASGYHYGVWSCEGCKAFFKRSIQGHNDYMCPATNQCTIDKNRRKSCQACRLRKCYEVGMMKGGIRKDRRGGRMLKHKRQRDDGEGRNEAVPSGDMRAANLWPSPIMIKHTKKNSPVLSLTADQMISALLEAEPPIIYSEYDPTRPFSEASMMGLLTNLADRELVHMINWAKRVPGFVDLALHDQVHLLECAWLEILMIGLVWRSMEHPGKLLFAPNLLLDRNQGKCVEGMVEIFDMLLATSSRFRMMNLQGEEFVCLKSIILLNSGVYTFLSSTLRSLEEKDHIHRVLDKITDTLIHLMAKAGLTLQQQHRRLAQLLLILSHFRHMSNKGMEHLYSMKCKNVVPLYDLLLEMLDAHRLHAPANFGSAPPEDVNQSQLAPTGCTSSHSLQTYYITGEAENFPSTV
Text: The test methodology is described in Cancer Treatment Reviews 1984, 11, 147.
*Relative bonding affinities to the oestrogen receptor of calves' uteri,
in relation to 17β-estradiol = 100

uterus of infantile mice [3] = assay: Uterotrophic test (in-vivo test on infantile mice); settings: uterus dry weight (mg)/body weight (g) × 100
Procedure: as §1, §2, §3, §4

[4] = 1 μg/animal s.c. on three consecutive days
[5] = 5 μg/animal s.c. on three consecutive days
[6] = 25 μg/animal s.c. on three consecutive days
[7] = 125 μg/animal s.c. on three consecutive days

SMILES	anti-uterotrophic test, inhibition (uterus of infantile mice [1]; 5 μg/animal s.c.) [%]	anti-uterotrophic test, inhibition (uterus of infantile mice [1]; 25 μg/animal s.c.) [%]	anti-uterotrophic test, inhibition (uterus of infantile mice [1]; 125 μg/animal s.c.) [%]	anti-uterotrophic test, effect (uterus of infantile mice [1]; 5 μg/animal s.c.) [mg/g × 100]	anti-uterotrophic test, effect (uterus of infantile mice [1]; 25 μg/animal s.c.) [mg/g × 100]	anti-uterotrophic test, effect (uterus of infantile mice [1]; 125 μg/animal s.c.) [mg/g × 100]	effect on the growth of MCF-7 / hormone-dependent tumour cells, in words [2]	activity at 10 µM [2] [%]	activity at 1 µM [2] [%]	activity at 0.1 µM [2] [%]	activity at 5 µM [2] [%]	affinity to the oestrogen (estradiol) receptor, in words (oestrogen receptor)	RBA* (relative bonding affinity to the oestrogen receptor) (oestrogen receptor)	uterotrophic test, effect (uterus of infantile mice [3]; [4]) [mg/g × 100]	uterotrophic test, effect (uterus of infantile mice [3]; [5]) [mg/g × 100]	uterotrophic test, effect (uterus of infantile mice [3]; [6]) [mg/g × 100]	uterotrophic test, effect (uterus of infantile mice [3]; [7]) [mg/g × 100]	anti-uterotrophic test, effect (uterus of infantile mice [1]; 1 μg/animal s.c.) [mg/g × 100]	further results
Cc1c(-c2ccc(O)cc2)sc2ccc(O)cc12 [Compound 102a, 5-hydroxy-2-(4-hydroxypheny)-3-methyibenxo[b]thiophen]	12	68	42	42.4 ± 4.0	23.1 ± 3.8	32.2 ± 3.8	strongly inhibiting effect	14.7 ± 6.4	87.4 ± 20	71.3 ± 18.8	48.5 ± 14.7	greatest affinity in relation to estradiol	26,0	15.8 ± 2.1	20.8 ± 2.7	15.7 ± 2.3	18.5 ± 3.0		
CCCc1c(-c2ccc(O)cc2)sc2cc(O)ccc12 [Compound 106b, 6-hydroxy-2-(4-hydroxyphenyl)-3-propylbenzo[b]thiophen]	34	39	40	37.0 ± 6.5	35.3 ± 6.7	34.8 ± 6.2	strongly inhibiting effect	1.8 ± 3.1	69 ± 15.1	81.7 ± 17.5	3.6 ± 3	greatest affinity in relation to estradiol	25,1	16.6 ± 4.6	22.4 ± 3.1	24.5 ± 4.8	35.1 ± 4.9		
CCc1c(-c2ccc(O)cc2)oc2ccc(O)cc12 [Compound 62a, 3-ethyl-5-hydroxy-2-(4-hydroxyphenyl)benzo[b]furan]	10	22		39.1 ± 4.2	35.6 ± 2.6		strongly inhibiting effect	-0.2 ± 2.9	49 ± 12.6	65 ± 13.5	0.3 ± 3.8	greatest affinity in relation to estradiol	15,7	10.5 ± 1.9	14.6 ± 2.4	19.0 ± 4.4		44.2 ± 7.8	
CCCc1c(-c2ccc(O)cc2)sc2ccc(O)cc12 [Compound 106a, 5-hydroxy-2-(4-hydroxyphenyl)-3-propylbenzo[b]thiophen]	27			34.4 ± 7.1	48.0 ± 4.2	48.8 ± 4.1	strongly inhibiting effect	0.3 ± 3.5	35 ± 10.4	77.1 ± 21.4	2.3 ± 4.1	greatest affinity in relation to estradiol	21,9	25.4 ± 6.2	32.7 ± 5.0	35.3 ± 7.5	51.2 ± 9.9		
CCc1c(-c2ccc(O)cc2)sc2ccc(O)cc12 [Compound 104a, 3-ethyl-5-hydroxy-2-(4-hydroxyphenyl)benzo[b]thiophen]	27		30	37.0 ± 3.4	44.1 ± 6.7	36.3 ± 4.0	strongly inhibiting effect	3.2 ± 3.2	59.1 ± 15.9	61.2 ± 22.1	2.4 ± 3.9	greatest affinity in relation to estradiol	59,6	30.3 ± 7.7	38.5 ± 5.4	44.2 ± 6.6	19.6 ± 5.2	35.3 ± 7.3	anti-uterotrophic test, inhibition (uterus of infantile mice [1]; 1 μg/animal s.c.): 32%; anti-uterotrophic test, effect (uterus of infantile mice [1]; 0.2 μg/animal s.c.): 49.8 ± 1.4 mg/g × 100; uterotrophic test, effect (uterus of infantile mice [3]; 0.2 μg/animal s.c. on three consecutive days, 24 hours after final injection): 27.6 ± 3.8 mg/g × 100
CCc1c(-c2ccc(O)cc2)sc2cc(O)ccc12 [Compound 104b, 3-ethyl-6-hydroxy-2-(4-hydroxyphenyl)benzo[b]thiophen]	32	33	31	37.9 ± 6.9	37.3 ± 4.2	38.0 ± 5.4	strongly inhibiting effect	4.2 ± 6	91.9 ± 21.2	94 ± 21.2	5.7 ± 5.8	greatest affinity in relation to estradiol	27,6	18.0 ± 4.0	22.7 ± 5.9	29.3 ± 4.5	39.9 ± 6.1		
